One data set has as its target ITK (Homo sapiens (Human), UniProt Q08881). The data set can be described thus: ITK kinase assay (radiometric filter binding, 10 μM ATP). The data set is classed as biochemical. The method, then:
(§1) All additions were done on ice, followed by the addition of ATP mix. Wells were uniformly mixed using an Eppendorff plate shaker and incubated at 30° C. for 20 min, and stopped by the addition of 5 μL of 3% phosphoric acid. Volume was increased to 100 μL by adding 0.8% phosphoric acid which was then transferred to PC filter mats (Millipore), pre-equilibrated with 70% ethanol and water. Plates were washed thrice with 100 μL 0.8% phosphoric acid and dried for an hour at 60° C. 100 μL scintillation fluid was added into each well and reading taken in Perkin Elmer TOPCOUNT beta counter.
(§2) The reactions were carried out at 10 μM ATP for ITK, JAK3 and other TEC and Janus family of kinase.

Data set [1] in a line: Pharmacokinetics in male Sprague Dawley rats. The data set is classed as in vivo. The conditions noted are these: rat, plasma. The protocol: The bio-availability and pharmacokinetics of some compounds of the present invention were examined in male Sprague Dawley rats. A total of 6 male rats were used in the study. The study was performed using parallel design (n=3) with serial sampling.
Dose formulations were prepared on the day of doing. Blood samples were collected at 0.083 (only IV), 0.25, 0.5, 1, 2, 4, 8 and 24 h post-dose. At each time point, approximately 0.2 mL of blood was withdrawn from each cannulated rat through jugular vein and transferred to a pre-labeled microfuge tube containing 20 μL of 200 mm K2EDTA permL of blood. Following collection of blood sample, equal volume of heparinized saline was flushed into jugular vein of rat. The blood samples were centrifuged at 5000 g for 5 min at 4±2° C. The plasma was separated within 30 min of scheduled time and stored below −60° C. until bio-analysis. […] The pharmacokinetic parameters for select EXAMPLES were calculated using the non-compartmental analysis tool of validated WinNonlin® software (Version 5.2).

In a further data set the target is JAK3 (Homo sapiens (Human), UniProt P52333). The data set can be described thus: JAK3 kinase assay (radiometric filter binding, 10 μM ATP). It is filed as biochemical. The method, then: as §1, §2
Setting [2] is: read-out: biochemical IC50 against ITK.
Where [3] appears, read: IV 5 mg/kg, solution, male Sprague Dawley rats, mean±SD, n=3.
The mark [4] stands for this setting: PO 20 mg/kg, solution, male Sprague Dawley rats, mean±SD, n=3.
The mark [5] stands for this setting: read-out: biochemical IC50 against JAK3.
[6] abbreviates: 10-dose IC50 mode, 10 μM ATP, read-out: ITK kinase inhibition.
The mark [7] stands for this setting: 10-dose IC50 mode, 10 μM ATP, read-out: JAK3 kinase inhibition.

Molecules are shown by their SMILES. Like-named read-outs stand apart in the source and are kept apart here.

Broadly, the bioavailability is the share of a dose that reaches the circulation, judged against a reference dose that is usually intravenous. One may read the AUC(0-inf) as the area under the concentration-time curve extrapolated to infinity. A higher AUC(0-inf) goes with more exposure. In general, AUC(0-t) refers to exposure summed from dosing to a finite time, without extrapolation to infinity. One may read the clearance as the rate of elimination divided by the concentration. Lower therefore signals a low capacity for elimination. The term half-life denotes the time needed for the level to fall by half in the phase considered. Low values mean fast loss, high ones slow loss. The term Tmax denotes the time from dosing to the highest level.

JAK3, sequence (P52333 whole entry): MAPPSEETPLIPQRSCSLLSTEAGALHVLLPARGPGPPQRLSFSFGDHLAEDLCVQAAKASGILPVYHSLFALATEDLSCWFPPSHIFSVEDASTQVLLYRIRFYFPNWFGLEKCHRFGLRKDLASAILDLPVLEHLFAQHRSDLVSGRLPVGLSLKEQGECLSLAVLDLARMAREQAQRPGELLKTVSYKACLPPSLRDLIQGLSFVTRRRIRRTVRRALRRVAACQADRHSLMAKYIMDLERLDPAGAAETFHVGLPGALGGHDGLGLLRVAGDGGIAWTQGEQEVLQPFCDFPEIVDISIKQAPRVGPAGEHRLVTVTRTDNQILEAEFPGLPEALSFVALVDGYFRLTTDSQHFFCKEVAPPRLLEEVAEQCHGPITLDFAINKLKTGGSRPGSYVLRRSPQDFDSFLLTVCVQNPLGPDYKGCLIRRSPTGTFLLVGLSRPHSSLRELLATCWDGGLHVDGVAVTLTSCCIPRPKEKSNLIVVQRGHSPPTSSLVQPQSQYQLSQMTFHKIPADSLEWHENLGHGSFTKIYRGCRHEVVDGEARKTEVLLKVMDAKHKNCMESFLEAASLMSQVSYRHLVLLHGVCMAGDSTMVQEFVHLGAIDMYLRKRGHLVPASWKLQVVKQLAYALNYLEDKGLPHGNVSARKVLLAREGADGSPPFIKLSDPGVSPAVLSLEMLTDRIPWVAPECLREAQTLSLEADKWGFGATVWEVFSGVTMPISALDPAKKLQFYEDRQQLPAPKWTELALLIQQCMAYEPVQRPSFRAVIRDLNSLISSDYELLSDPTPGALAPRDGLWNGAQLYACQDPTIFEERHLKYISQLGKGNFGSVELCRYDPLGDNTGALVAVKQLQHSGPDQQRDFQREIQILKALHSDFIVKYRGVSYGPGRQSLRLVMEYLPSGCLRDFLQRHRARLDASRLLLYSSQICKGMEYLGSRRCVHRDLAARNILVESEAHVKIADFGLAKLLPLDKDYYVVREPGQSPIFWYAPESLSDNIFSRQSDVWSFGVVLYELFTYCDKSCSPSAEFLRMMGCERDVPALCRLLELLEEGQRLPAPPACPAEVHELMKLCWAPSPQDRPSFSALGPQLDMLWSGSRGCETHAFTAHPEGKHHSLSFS
ITK, sequence (Q08881 whole entry): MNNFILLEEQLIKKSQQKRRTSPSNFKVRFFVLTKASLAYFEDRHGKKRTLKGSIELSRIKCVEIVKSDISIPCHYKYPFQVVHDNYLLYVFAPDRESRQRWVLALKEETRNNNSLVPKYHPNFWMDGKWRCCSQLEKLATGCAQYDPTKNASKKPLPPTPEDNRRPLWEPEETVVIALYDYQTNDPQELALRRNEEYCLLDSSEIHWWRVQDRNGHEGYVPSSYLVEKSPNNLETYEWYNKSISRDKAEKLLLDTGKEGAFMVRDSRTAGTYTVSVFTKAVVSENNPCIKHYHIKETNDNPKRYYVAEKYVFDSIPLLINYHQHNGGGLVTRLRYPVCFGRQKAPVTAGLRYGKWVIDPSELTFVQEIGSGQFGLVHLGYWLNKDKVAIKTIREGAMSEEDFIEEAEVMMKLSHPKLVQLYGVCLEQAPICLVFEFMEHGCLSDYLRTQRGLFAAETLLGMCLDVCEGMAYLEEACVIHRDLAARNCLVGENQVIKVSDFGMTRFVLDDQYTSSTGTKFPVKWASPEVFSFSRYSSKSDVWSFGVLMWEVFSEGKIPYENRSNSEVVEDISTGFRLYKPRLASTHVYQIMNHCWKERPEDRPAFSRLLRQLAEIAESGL

In the case of `C=CC(=O)Nc1cccc(-c2cnc3[nH]cc(Cl)c3c2)c1` [Example 7, N-(3-(3-chloro-1H-pyrrolo[2,3-b]pyridin-5-yl)phenyl)acrylamide], at ITK (setting [2]), the IC50 was in the range of 100 to 1000 nM. Further, the bioavailability in data set [1] (male, Sprague Dawley, PO 20 mg/kg vs IV 5 mg/kg, AUCinf and nominal doses used, read-out: F (bioavailability)) was 15%. In data set [1] (setting [3]), this compound gave an AUC(0-inf) of 2620 ± 647 ng·h/mL, an exposure AUC(0-t) of 2600 ng·h/mL, a clearance of 33.4 ± 9.57 mL/min/kg and a half-life of 32.4 ± 3 min. Besides, the Cmax in data set [1] (IV 5 mg/kg, solution, male Sprague Dawley rats, mean±SD, n=3, read-out: Cmax (back extrapolated concentration at time zero)) was 3850 ng/mL. In addition, in data set [1] (IV 5 mg/kg, solution, male Sprague Dawley rats, mean±SD, n=3, read-out: Vss), the Vd turned out to be 1.61 ± 0.28 L/kg. In data set [1] (setting [4]), the AUC(0-inf) was 1600 ± 183 ng·h/mL and the AUC(0-t) worked out at 1580 ng·h/mL. Moreover, in data set [1] (PO 20 mg/kg, solution, male Sprague Dawley rats, mean±SD, n=3, read-out: Cmax), the Cmax was found to be 853 ng/mL. In addition, the Tmax in data set [1] (PO 20 mg/kg, solution, male Sprague Dawley rats, median (range), n=3) came out at 15 min. Besides, the IC50 at JAK3 (setting [5]) lay in the range of 100 to 1000 nM.
For `CC#CC(=O)Nc1cccc(-c2cnc3[nH]cc(Cl)c3c2)n1` [Example 82, N-(6-(3-chloro-1H-pyrrolo[2,3-b]pyridin-5-yl)pyridin-2-yl)but-2-ynamide], the IC50 on ITK (setting [6]) and at JAK3 (setting [7]) was less than 100 nM in each case.
In the case of `Cc1n[nH]c2ncc(-c3cccc(NC(=O)/C=C/N(C)C)c3)cc12` [Example 48, (E)-3-(dimethylamino)-N-(3-(3-methyl-1H-pyrazolo[3,4-b]pyridin-5-yl)phenyl)acrylamide], the IC50 at ITK (setting [6]) and at JAK3 (setting [7]) was greater than 100 nM in each case.
`COc1c(F)cc(F)cc1-c1c[nH]c2ncc(-c3cc(F)cc(NC(=O)/C(C)=C/C(C)(C)C)c3C)cc12` [Example 170, (E)-N-(3-(3-(3,5-difluoro-2-methoxyphenyl)-1H-pyrrolo[2,3-b]pyridin-5-yl)-5-fluoro-2-methylphenyl)-2,4,4-trimethylpent-2-enamide]: the IC50 on ITK (setting [6]) and at JAK3 (setting [7]) was less than 100 nM in each case.
For the compound `COc1c(F)cc(F)cc1-c1c[nH]c2ncc(-c3cccc(NC(=O)/C(C)=C/C(C)(C)C)c3)cc12` [Example 158, (E)-N-(3-(3-(3,5-difluoro-2-methoxyphenyl)-1H-pyrrolo[2,3-b]pyridin-5-yl)phenyl)-2,4,4-trimethylpent-2-enamide], the IC50 at ITK (setting [6]) and on JAK3 (setting [7]) was less than 100 nM each time.
For the compound `Cc1cccc(-c2c[nH]c3ncc(-c4cccc(NC(=O)/C=C/CN(C)C)c4)cc23)c1F` [Example 145, (E)-4-(dimethylamino)-N-(3-(3-(2-fluoro-3-methylphenyl)-1H-pyrrolo[2,3-b]pyridin-5-yl)phenyl)but-2-enamide], the IC50 at ITK (setting [6]) and at JAK3 (setting [7]) was greater than 100 nM each time.
Regarding `COc1cc(F)c(C)cc1-c1c[nH]c2ncc(-c3cccc(NC(=O)/C=C/CN(C)C)c3)cc12` [Example 138, (E)-4-(dimethylamino)-N-(3-(3-(4-fluoro-2-methoxy-5-methylphenyl)-1H-pyrrolo[2,3-b]pyridin-5-yl)phenyl)but-2-enamide], the IC50 on ITK (setting [6]) and on JAK3 (setting [7]) was greater than 100 nM in each case.
Consider `C=CC(=O)Nc1cccc(-c2cnc3[nH]cc(-c4cc5ccccc5[nH]4)c3c2)c1` [Example 66, N-(3-(3-(1H-indol-2-yl)-1H-pyrrolo[2,3-b]pyridin-5-yl)phenyl)acrylamide], for which the IC50 at ITK (setting [6]) is less than 100 nM; at ITK (setting [2]), 100 to 1000 nM; at JAK3 (setting [7]) it was less than 100 nM; on JAK3 (setting [5]), 100 to 1000 nM.
In the case of `COc1c(F)cc(F)cc1-c1c[nH]c2ncc(-c3cc(NC(=O)/C=C/CN(C)C)ccc3F)cc12` [Example 133, (E)-N-(3-(3-(3,5-difluoro-2-methoxyphenyl)-1H-pyrrolo[2,3-b]pyridin-5-yl)-4-fluorophenyl)-4-(dimethylamino)but-2-enamide], the IC50 on ITK (setting [6]) and at JAK3 (setting [7]) was greater than 100 nM in each case.
For `C#CC1(C(=O)Nc2cccc(-c3cnc4[nH]cc(Cl)c4c3)c2)CC1` [Example 16, N-(3-(3-chloro-1H-pyrrolo[2,3-b]pyridin-5-yl)phenyl)-1-ethynylcyclopropanecarboxamide], the IC50 on ITK (setting [6]) is greater than 1000 nM; on ITK (setting [2]) it was 100 to 1000 nM; on JAK3 (setting [7]), less than 100 nM; at JAK3 (setting [5]), 100 to 1000 nM.
Consider `C#CC(=O)Nc1cccc(-c2cnc3[nH]cc(Cl)c3c2)c1` [Example 20, N-(3-(3-chloro-1H-pyrrolo[2,3-b]pyridin-5-yl)phenyl)propiolamide], for which the IC50 at ITK (setting [6]) and on JAK3 (setting [7]) was less than 100 nM in each case.
Consider `CCC#CC(=O)Nc1cccc(-c2cnc3[nH]cc(Cl)c3c2)c1` [Example 21, N-(3-(3-chloro-1H-pyrrolo[2,3-b]pyridin-5-yl)phenyl)pent-2-ynamide], for which the IC50 on ITK (setting [6]) and on JAK3 (setting [7]) was less than 100 nM in each case.
Turning to `C#CC(=O)Nc1cccc(-c2cnc3[nH]cc(-c4cc(F)cc(F)c4OC)c3c2)c1` [Example 98, N-(3-(3-(3,5-difluoro-2-methoxyphenyl)-1H-pyrrolo[2,3-b]pyridin-5-yl)phenyl)propiolamide], the IC50 on ITK (setting [6]) and on JAK3 (setting [7]) was greater than 100 nM in each case.
For `C#CC(=O)Nc1cccc(-c2cnc3[nH]cc(C)c3c2)c1` [Example 70, N-(3-(3-methyl-1H-pyrrolo[2,3-b]pyridin-5-yl)phenyl)propiolamide], the IC50 on ITK (setting [6]) is greater than 100 nM; on JAK3 (setting [7]) it was less than 100 nM.
The like results for `C#CC(=O)Nc1cc(-c2cnc3[nH]cc(Cl)c3c2)ccc1F` [Example 84, N-(5-(3-chloro-1H-pyrrolo[2,3-b]pyridin-5-yl)-2-fluorophenyl)propiolamide] were, in that order, greater than 1000 nM and less than 100 nM.
The like results for `CCC#CC(=O)Nc1cc(-c2cnc3[nH]ccc3c2)ccc1F` [Example 85, N-(2-fluoro-5-(1H-pyrrolo[2,3-b]pyridin-5-yl)phenyl)pent-2-ynamide] were, in that order, greater than 1000 nM and less than 100 nM.
On the same counts, the results for `CCC#CC(=O)Nc1cccc(-c2cnc3[nH]cc(-c4cc(F)cc(F)c4OC)c3c2)c1` [Example 37, N-(3-(3-(3,5-difluoro-2-methoxyphenyl)-1H-pyrrolo[2,3-b]pyridin-5-yl)phenyl)pent-2-ynamide] are greater than 100 nM and greater than 100 nM.
Take `C=CC(=O)Nc1cccc(-c2cnc3[nH]cc(-c4cccc(S(=O)(=O)N(C)C(C)(C)C)c4)c3n2)c1` [Example 33, N-(3-(7-(3-(N-(tert-butyl)-N-methylsulfamoyl)phenyl)-5H-pyrrolo[2,3-b]pyrazin-2-yl)phenyl)acrylamide]: the IC50 on ITK (setting [6]) and on JAK3 (setting [7]) was less than 100 nM each time.
`C=CC(=O)Nc1ccc(-c2cnc3[nH]ccc3c2)cc1F` [Example 61, N-(2-fluoro-4-(1H-pyrrolo[2,3-b]pyridin-5-yl)phenyl)acrylamide]: the figures for the IC50 at ITK (setting [6]) and on JAK3 (setting [7]) were greater than 1000 nM and greater than 100 nM, respectively.
Regarding `CCC#CC(=O)Nc1cc(-c2cnc3[nH]cc(Cl)c3c2)ccc1F` [Example 86, N-(5-(3-chloro-1H-pyrrolo[2,3-b]pyridin-5-yl)-2-fluorophenyl)pent-2-ynamide], the IC50 on ITK (setting [6]) was greater than 100 nM; at JAK3 (setting [7]), less than 100 nM.
As for `C#CC(=O)Nc1cccc(-c2cnc3[nH]ccc3c2)n1` [Example 77, N-(6-(1H-pyrrolo[2,3-b]pyridin-5-yl)pyridin-2-yl)propiolamide], the IC50 on ITK (setting [6]) and at JAK3 (setting [7]) was less than 100 nM in each case.
On to `C=CC(=O)Nc1cccc(-c2cnc3[nH]cc(-c4cc(F)cc(F)c4OC)c3c2)c1` [Example 30, N-(3-(3-(3,5-difluoro-2-methoxyphenyl)-1H-pyrrolo[2,3-b]pyridin-5-yl)phenyl)acrylamide], for which the IC50 at ITK (setting [6]) and on JAK3 (setting [7]) was less than 100 nM each time.
On to `CC#CC(=O)Nc1cc(-c2cnc3[nH]cc(C)c3c2)ccc1F` [Example 93, N-(2-fluoro-5-(3-methyl-1H-pyrrolo[2,3-b]pyridin-5-yl)phenyl)but-2-ynamide], for which the IC50 at ITK (setting [6]) and on JAK3 (setting [7]) was greater than 100 nM in each case.
In the case of `Cc1n[nH]c2ncc(-c3ccc(Cl)c(NC(=O)/C=C/N(C)C)c3)cc12` [Example 49, (E)-N-(2-chloro-5-(3-methyl-1H-pyrazolo[3,4-b]pyridin-5-yl)phenyl)-3-(dimethylamino)acrylamide], the IC50 at ITK (setting [6]) and at JAK3 (setting [7]) was greater than 100 nM each time.
With `C=CC(=O)Nc1cccc(-c2cnc3[nH]cc(C)c3c2)c1` [Example 8, N-(3-(3-methyl-1H-pyrrolo[2,3-b]pyridin-5-yl)phenyl)acrylamide], the IC50 at ITK (setting [2]) and on JAK3 (setting [5]) was 100 to 1000 nM each time.

These data come from US9206188B2, “Substituted pyrrolo[2,3-b]pyridines as ITK and JAK inhibitors” (Arrien Pharmaceuticals LLC, priority 2013, dated 2015).
